Assay results published in patent US20170342499A1, “GENOMIC CLASSIFIER THAT PREDICTS RESPONSE TO MULTI-KINASE INHIBITOR TREATMENT INTRODUCTION” (Centre Léon-Bérard, priority 2014, published 2017).

What was measured:
CRC = experiment: Response to conventional chemotherapy versus SUMSCAN prediction in CRC patients; type: in vivo, human; details: CRC patients (n = 21)
[1] = system: imatinib and sunitinib refractory gastrointestinal stromal tumors (GIST); details: cited from earlier work
[2] = system: pretreated metastatic colorectal cancer (mCRC); details: cited from earlier work

Structure (SMILES)	patients resistant to the chemotherapy regimen, n (% of 21) (CRC; SUMSCAN Predicted Resistant)	patients sensitive to the chemotherapy regimen, n (% of 21) (CRC; SUMSCAN Predicted Resistant)	patients resistant to the chemotherapy regimen, n (% of 21) (CRC; SUMSCAN Predicted Sensitive)	patients sensitive to the chemotherapy regimen, n (% of 21) (CRC; SUMSCAN Predicted Sensitive)	patients resistant to the chemotherapy regimen, n (% of 21) (CRC; Total)	patients sensitive to the chemotherapy regimen, n (% of 21) (CRC; Total)	antitumor activity by nature of the KIT/or PDGFRA mutation ([1]; GIST)	improvement in PFS ([1]; imatinib and sunitinib refractory GIST) [months]	improvement in PFS [2] [weeks]
CCc1c2c(nc3ccc(OC(=O)N4CCC(N5CCCCC5)CC4)cc13)-c1cc3c(c(=O)n1C2)COC(=O)[C@]3(O)CC [Irinotecan]	2 (9.5%)	7 (33.3%)	3 (14.3%)	9 (42.9%)	5 (23.8%)	16 (76.2%)			
CNC(=O)c1cc(Oc2ccc(NC(=O)Nc3ccc(Cl)c(C(F)(F)F)c3)c(F)c2)ccn1 [Regorafenib]							observed at the same level regardless of the nature of the KIT/or PDGFRA mutation	4	0.9
O=C1[O][Pt]2([NH][C@@H]3CCCC[C@H]3[NH]2)[O]C1=O [Oxaliplatin]	2 (9.5%)	7 (33.3%)	6 (28.6%)	6 (28.6%)	8 (38.1%)	13 (61.9%)			
